Common to all, as to assay: Microtitre plate assay, IC90 determination
Holding throughout (assay type): cell-based

The test system of experiment [1] is Staphylococcus aureus (ATCC25923). As to conditions: 90% inhibitory concentration for bacterial growth, 37° C., resazurin fluorescence, read-out: IC90 (μg/ml) STA 25923. As for the experimental part:
(§1) The bacteria used in this study were grown overnight in flasks containing 100 ml Mueller-Hinton Broth (Becton Dickinson—cat. no. 275730) in sterile de-ionized water, with shaking, at 37° C. Stocks (0.5 ml/tube) were stored at −70° C. until use. Bacteria titrations were performed in microtiter plates and colony forming units (CFUs) were determined. In general, an inoculum level of approximately 100 CFUs was used for susceptibility testing.
(§2) Anti Bacterial Susceptibility Testing: IC90 Determination
(§3) Flat-bottom, sterile 96-well plastic microtiter plates were filled with 180 μl of sterile deionized water, supplemented with 0.25% BSA. Subsequently, stock solutions (7.8×final test concentration) of compounds were added in 45 μl volumes in column 2 Serial five-fold dilutions (45 μl in 180 μl) were made directly in the microtiter plates from column 2 to reach column 11. Untreated control samples with (column 1) and without (column 12) inoculum were included in each microtiter plate. Depending on the bacteria type, approximately 10 to 60 CFU per well of bacteria inoculum (100 TCID50), in a volume of 100 μl in 2.8× Mueller-Hinton broth medium, was added to the rows A to H, except column 12. The same volume of broth medium without inoculum was added to column 12 in row A to H. The cultures were incubated at 37° C. for 24 hours under a normal atmosphere (incubator with open air valve and continuous ventilation). At the end of incubation, one day after inoculation, the bacterial growth was quantitated fluorometrically. Therefore resazurin (0.6 mg/ml) was added in a volume of 20 μl to all wells […], and the plates were re-incubated overnight. A change in colour from blue to pink indicated the growth of bacteria.
(§4) The fluorescence was read in a computer-controlled fluorometer (Cytofluor Biosearch) at an excitation wavelength of 530 nm and an emission wavelength of 590 nm. The % growth inhibition achieved by the compounds was calculated according to standard methods. The IC90 (expressed in μg/ml) was defined as the 90% inhibitory concentration for bacterial growth.

The subject of experiment [2] is Bacillus subtilis (ATCC43639). To be noted: 90% inhibitory concentration for bacterial growth, 37° C., resazurin fluorescence, read-out: IC90 (μg/ml) BSU 43639. As for the experimental part: as §1, §2, §3, §4
(Resazurin is reduced to fluorescent resorufin, in cell work by metabolically active cells.)

Experiment [3] relates to Streptococcus pyogens (ATCC8668). As to conditions: 90% inhibitory concentration for bacterial growth, 37° C., resazurin fluorescence, read-out: IC90 (μg/ml) SPY 8668. As to the method: as §1, §2, §3, §4
Experiment [4] concerns Listeria monocytogenes (ATCC49594). To be noted: 90% inhibitory concentration for bacterial growth, 37° C., resazurin fluorescence, read-out: IC90 (μg/ml) LMO 49594. As for the experimental part:
as §1, §2, §3, §4

Experiment [5] concerns Pseudomonas aeruginosa (ATCC27853). As to conditions: 90% inhibitory concentration for bacterial growth, 37° C., resazurin fluorescence, read-out: IC90 (μg/ml) PAE 27853. As to the method:
as §1, §2, §3, §4

In experiment [6] the test system is Streptococcus pneumoniae (ATCC6305). To be noted: 90% inhibitory concentration for bacterial growth, 37° C., resazurin fluorescence, read-out: IC90 (μg/ml) SPN 6305. As to the method: as §1, §2, §3, §4
The subject of experiment [7] is Staphylococcus aureus (ATCC29213). As to conditions: 90% inhibitory concentration for bacterial growth, 37° C., resazurin fluorescence, read-out: IC90 (μg/ml) STA 29213. As for the experimental part:
as §1, §2, §3, §4

For experiment [8], the system named is methicilline resistant Staphylococcus aureus (MRSA) (a clinical isolate from the University of Antwerp). As to conditions: 90% inhibitory concentration for bacterial growth, 37° C., resazurin fluorescence, read-out: IC90 (μg/ml) STA RMETHIC. As for the experimental part:
as §1, §2, §3, §4

For experiment [9], the system named is Enterococcus faecalis (ATCC29212). To be noted: 90% inhibitory concentration for bacterial growth, 37° C., resazurin fluorescence, read-out: IC90 (μg/ml) EFA 29212. As to the method:
as §1, §2, §3, §4

In brackets after ≈: the same amount, converted by molar mass.

As for `COc1nc2cccc(C(O)(CCN(C)C)c3ccccc3)c2cc1-c1ccccc1` (centres unmarked) [Compound 4], the IC90 in [1], in [2], in experiment [3], in experiment [4], in [5] and in [6] was 10.4 µg/mL (≈ 25.2 µM) each time. The IC90 in [7], in experiment [8] and in experiment [9] was 10.4 µg/mL (≈ 25.2 µM) throughout.
In the case of `COc1nc2cccc(C(O)(CCN(C)C)c3ccco3)c2cc1-c1ccccc1` (centres unmarked) [Compound 5], the IC90 in experiment [1], in [2], in experiment [3], in experiment [4], in experiment [5] and in experiment [6] was 10.1 µg/mL (≈ 25.1 µM) each time. Further, the IC90 is 10.1 µg/mL (≈ 25.1 µM) in experiment [7], 9 µg/mL (≈ 22.4 µM) in experiment [8] and 10.1 µg/mL (≈ 25.1 µM) in experiment [9].
Take `COc1nc2ccc(C(O)(CCN(C)C)c3cc(F)cc(F)c3)cc2cc1Cc1ccc(C)cc1` (centres unmarked) [Compound 7]: the IC90 in experiment [1] came to 7.6 µg/mL (≈ 15.9 µM); in experiment [2], 37.9 µg/mL (≈ 79.5 µM); in experiment [3] it was 12 µg/mL (≈ 25.2 µM); in experiment [4] it was 7.6 µg/mL (≈ 15.9 µM); in experiment [5], 10.7 µg/mL (≈ 22.5 µM); in experiment [6] it was 12 µg/mL (≈ 25.2 µM). In addition, the IC90 amounted to 9.5 µg/mL (≈ 19.9 µM) in [7], 37.9 µg/mL (≈ 79.5 µM) in experiment [8] and 10.7 µg/mL (≈ 22.5 µM) in experiment [9].
For `COc1cc(-c2ccccc2)c2cc(C(O)(CCN(C)C)c3cc(F)cc(F)c3)ccc2n1` (centres unmarked) [Compound 11], the IC90 was 11.3 µg/mL (≈ 25.2 µM) in experiment [1]; 11.3 µg/mL (≈ 25.2 µM) in [2]; 9 µg/mL (≈ 20.1 µM) in [3]; 11.3 µg/mL (≈ 25.2 µM) in experiment [4]; 11.3 µg/mL (≈ 25.2 µM) in [5]; 11.3 µg/mL (≈ 25.2 µM) in experiment [6]. Also, the IC90 in [7], in experiment [8] and in experiment [9] was 11.3 µg/mL (≈ 25.2 µM) each time.
Regarding `COc1nc2c(C(O)(CCN(C)C)c3ccco3)cc(Br)cc2cc1-c1ccccc1` (centres unmarked) [Compound 13], the IC90 is 12.1 µg/mL (≈ 25.1 µM) in experiment [1]; 12.1 µg/mL (≈ 25.1 µM) in [2]; 12.1 µg/mL (≈ 25.1 µM) in experiment [3]; 12.1 µg/mL (≈ 25.1 µM) in [4]; 12.1 µg/mL (≈ 25.1 µM) in experiment [5]; 10.8 µg/mL (≈ 22.4 µM) in experiment [6]. Also, the IC90 in [7], in [8] and in experiment [9] was 12.1 µg/mL (≈ 25.1 µM) throughout.
Regarding `COc1cc(-c2ccccc2)c2cc(C(O)(CCN(C)C)c3ccccc3)ccc2n1` (centres unmarked) [Compound 14], the IC90 in [1], in [2], in [3], in [4], in experiment [5] and in experiment [6] was 10.4 µg/mL (≈ 25.2 µM) throughout. For the same compound, the IC90 in experiment [7], in experiment [8] and in [9] was 10.4 µg/mL (≈ 25.2 µM) each time.
Consider `COc1cc(-c2ccccc2)c2cc(C(O)(CCN(C)C)c3ccco3)ccc2n1` (centres unmarked) [Compound 15], for which the IC90 in experiment [1], in experiment [2], in experiment [3], in experiment [4], in [5] and in experiment [6] was 10.1 µg/mL (≈ 25.1 µM) each time. Moreover, the IC90 in experiment [7], in experiment [8] and in experiment [9] was 10.1 µg/mL (≈ 25.1 µM) in each case.
Consider `COc1cc(-c2ccccc2)c2cc(C(O)(CCN(C)C)c3ccccn3)ccc2n1` (centres unmarked) [Compound 16], for which the IC90 in experiment [1], in [2], in [3], in experiment [4], in [5] and in experiment [6] was 10.4 µg/mL (≈ 25.1 µM) throughout. Besides, the IC90 in experiment [7], in experiment [8] and in [9] was 10.4 µg/mL (≈ 25.1 µM) each time.
Regarding `CN(C)CCC(O)(c1ccccc1)c1ccc2nc(-c3cccnc3)cc(-c3ccccc3)c2c1` (centres unmarked) [Compound 43], the IC90 in experiment [3], in experiment [5], in [6], in experiment [7] and in experiment [9] was 11.5 µg/mL (≈ 25 µM) in each case.

The record behind these values is US8017606B2, “Quinoline derivatives as antibacterial agents” (Janssen Pharmaceutica NV, priority 2005, dated 2011).
